For one data set, the target named is T1, GR (Homo sapiens, UniProt P04150).
T1 sequence (P04150 1-777): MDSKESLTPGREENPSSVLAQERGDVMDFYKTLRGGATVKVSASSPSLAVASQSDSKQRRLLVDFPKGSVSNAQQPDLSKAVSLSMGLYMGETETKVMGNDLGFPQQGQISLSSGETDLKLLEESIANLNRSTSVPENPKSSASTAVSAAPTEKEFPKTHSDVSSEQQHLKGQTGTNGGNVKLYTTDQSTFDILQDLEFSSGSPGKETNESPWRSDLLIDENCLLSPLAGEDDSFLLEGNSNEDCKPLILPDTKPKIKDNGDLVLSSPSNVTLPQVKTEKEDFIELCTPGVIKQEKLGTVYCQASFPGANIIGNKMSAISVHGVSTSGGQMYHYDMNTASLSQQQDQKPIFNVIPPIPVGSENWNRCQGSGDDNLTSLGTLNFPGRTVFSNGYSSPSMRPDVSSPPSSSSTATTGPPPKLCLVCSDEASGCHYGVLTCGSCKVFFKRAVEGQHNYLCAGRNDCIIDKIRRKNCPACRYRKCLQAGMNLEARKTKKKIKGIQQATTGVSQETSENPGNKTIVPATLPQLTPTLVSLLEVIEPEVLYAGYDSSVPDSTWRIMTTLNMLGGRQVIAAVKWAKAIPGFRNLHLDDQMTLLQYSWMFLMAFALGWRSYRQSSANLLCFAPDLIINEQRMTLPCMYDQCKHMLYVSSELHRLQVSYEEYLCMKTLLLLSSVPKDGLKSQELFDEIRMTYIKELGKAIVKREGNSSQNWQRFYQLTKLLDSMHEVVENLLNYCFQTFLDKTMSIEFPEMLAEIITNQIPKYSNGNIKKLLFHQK
Description: GR transcriptional reporter assay, antagonist mode (CV1 cells). In kind it is cell-based. How it is done:
CV1 cells were maintained in MEM supplemented with 10% FBS. Transcriptional assays were performed by seeding 12 mL of cells at a density of 250,000 cells/mL into a T-75 cell culture flask in MEM supplemented with 5% charcoal-stripped serum and allowed to attach overnight. Cells were transiently transfected using FuGENE 6 (Roche Applied Science). […] Transfected cells were incubated overnight then split into four 96-well tissue culture plates and incubated for 4 hr followed by compound addition. […] The final agonist concentration used in the antagonist assays was 10 nM.
(In general: In a reporter assay the amount or activity of a reporter protein is the signal.)

The next data set has as its target T2, MR (Homo sapiens, UniProt P08235).
T2 construct: expressed in transfected cells; host or cells: HEPG2
T2 sequence (P08235 1-984): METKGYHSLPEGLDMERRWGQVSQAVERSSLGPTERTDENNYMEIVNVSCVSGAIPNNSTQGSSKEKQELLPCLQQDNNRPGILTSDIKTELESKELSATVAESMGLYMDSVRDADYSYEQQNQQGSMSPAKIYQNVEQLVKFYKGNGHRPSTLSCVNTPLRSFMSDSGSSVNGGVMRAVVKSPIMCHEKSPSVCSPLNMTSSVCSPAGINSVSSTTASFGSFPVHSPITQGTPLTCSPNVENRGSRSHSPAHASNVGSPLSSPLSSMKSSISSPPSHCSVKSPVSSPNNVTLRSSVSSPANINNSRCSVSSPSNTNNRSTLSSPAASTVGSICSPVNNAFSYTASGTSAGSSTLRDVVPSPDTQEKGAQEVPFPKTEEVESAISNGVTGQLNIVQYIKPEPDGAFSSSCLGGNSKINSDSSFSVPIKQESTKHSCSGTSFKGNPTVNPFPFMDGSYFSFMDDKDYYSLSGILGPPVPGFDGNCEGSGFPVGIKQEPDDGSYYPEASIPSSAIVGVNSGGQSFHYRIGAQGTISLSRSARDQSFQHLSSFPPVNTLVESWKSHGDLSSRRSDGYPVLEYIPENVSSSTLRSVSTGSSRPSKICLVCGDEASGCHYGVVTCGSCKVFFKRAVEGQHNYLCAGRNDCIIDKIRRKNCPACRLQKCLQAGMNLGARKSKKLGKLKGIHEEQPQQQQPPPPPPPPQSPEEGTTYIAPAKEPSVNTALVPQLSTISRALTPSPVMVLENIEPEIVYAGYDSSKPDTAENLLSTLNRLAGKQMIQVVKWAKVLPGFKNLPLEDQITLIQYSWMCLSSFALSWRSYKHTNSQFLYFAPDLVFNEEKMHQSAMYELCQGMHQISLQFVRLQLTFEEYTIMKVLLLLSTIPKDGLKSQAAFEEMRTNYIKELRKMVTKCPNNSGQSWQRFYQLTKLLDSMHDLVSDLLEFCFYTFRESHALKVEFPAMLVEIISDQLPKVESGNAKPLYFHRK
Kind of data set: MR transcriptional reporter assay, antagonist mode (HEPG2 cells). In kind it is cell-based. The following applies: 1 nM aldosterone.

Data set [1] relates to ZR75-1 ER+ breast cancer tumors. Kind of data set: ZR-75-1 xenograft efficacy. The format is in vivo, mice. Conditions: GDC-0810 100 mg/kg/day p.o., 28 days, 0.72 mg E2 pellets.
The next data set concerns T47D ER.WT cells. Kind of data set: Cell viability, T47D ER.WT cells. In kind it is cell-based. Conditions: Homo sapiens, +E2. Here is the method: In the presence of 0.1 nM estrogen however, much of this competitive advantage is lost, with WT cells representing 40% ± 0.2% of the total population at day 15 (Figure 7C,D).
Figure 7. […] 4 images per condition were quantified.

The test system of a further data set is ER. More on the design: method as in Dickler et al., 2015. The following applies: postmenopausal women with ER+ locally advanced or metastatic breast cancer, patients with FES-PET scans; ref Dickler et al., 2015; cited from earlier work.
Data set [2] in a line: GDC-0810 mouse pharmacokinetics.
A short description of data set [3]: Fulvestrant plasma concentrations in mice.
The next data set addresses ERα (Homo sapiens, UniProt P03372). Description: MCF7 ERα In-Cell Western assay. The following applies: MCF7, 4 hr.

The structures appear in SMILES notation.

Sequence of ERα (P03372 whole entry): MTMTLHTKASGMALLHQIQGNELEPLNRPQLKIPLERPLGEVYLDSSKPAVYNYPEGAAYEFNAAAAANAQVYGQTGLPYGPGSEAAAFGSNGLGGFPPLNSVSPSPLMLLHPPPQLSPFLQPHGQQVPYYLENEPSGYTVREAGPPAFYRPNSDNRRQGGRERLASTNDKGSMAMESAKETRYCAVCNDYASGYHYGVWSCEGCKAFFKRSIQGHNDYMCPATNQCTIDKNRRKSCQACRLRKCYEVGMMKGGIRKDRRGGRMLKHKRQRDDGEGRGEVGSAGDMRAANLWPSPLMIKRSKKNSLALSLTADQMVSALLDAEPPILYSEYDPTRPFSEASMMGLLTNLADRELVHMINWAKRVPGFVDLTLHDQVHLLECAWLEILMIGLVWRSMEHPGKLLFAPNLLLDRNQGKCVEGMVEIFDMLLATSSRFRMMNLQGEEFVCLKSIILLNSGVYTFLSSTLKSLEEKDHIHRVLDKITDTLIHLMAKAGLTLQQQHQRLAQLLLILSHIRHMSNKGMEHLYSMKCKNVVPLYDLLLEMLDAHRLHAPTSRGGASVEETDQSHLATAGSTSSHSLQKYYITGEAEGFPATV

`CC/C(=C(\c1ccc(O)cc1)c1ccc(OCCN(C)C)cc1)c1ccccc1` [4-OH Tam, 4-hydroxytamoxifen]: the IC50 (in general, the concentration that gives 50% inhibition) at GR was found to be 1470 ± 1180 nM; against MR, 6420 ± 750 nM.
For the compound `CC/C(=C(/c1ccc(/C=C/C(=O)O)cc1)c1ccc2[nH]ncc2c1)c1ccc(F)cc1Cl` [GDC-0810], the “Tumor growth response, ZR75-1 xenograft” value in data set [1] is “displayed anti-tumor activity”. The compound also gave an IC50 with T47D ER.WT cells of 32 nM. Further, the “patients with complete/near complete (>90%) suppression of FES uptake” value with ER was 90 % of patients. Moreover, in data set [2], the “Oral %F” value came out at 61%. Moreover, the Clast in data set [2] (oral gavage, 10 mg/kg/day) stood at 7 ng/mL. The Clast in data set [2] (oral gavage, 30 mg/kg/day) is 13 ng/mL. Further, the AUC(0-t) – broadly, the area under the concentration-time curve up to a stated or last time point – in data set [2] (oral gavage, 100 mg/kg/day) is 94100 ng·h/mL. For the same compound, the half-life – broadly, how long it takes for the measured level to halve – in data set [2] (plasma) is 2.6 h. Also, in data set [2] (plasma, intravenous), the Vd (in general, the apparent volume that relates the amount in the body to the concentration in plasma or blood) stood at 1.2 L/kg and the clearance (in general, a measure of how efficiently the substance is removed, as volume per time) came out at 11 mL/min/kg. In data set [2] (plasma, po), the AUC(0-inf) (commonly total exposure, with the tail of the curve extrapolated) was determined as 8800 ng·h/mL and the Cmax (as a rule, the peak of the concentration-time curve) is 4400 ng/mL. In addition, in data set [2] (plasma, po, 10 mg/kg/day), the AUC(0-t) is 5500 ng·h/mL; the Cmax worked out at 1640 ng/mL; the Tmax (as a rule, the time from dosing to the highest level) was found to be 1 h; the half-life was 8 h. In data set [2] (plasma, po, 30 mg/kg/day), the AUC(0-t) was determined as 21500 ng·h/mL, the Cmax was found to be 5330 ng/mL, the Tmax was 1 h and the half-life was 4 h. In data set [2] (plasma, po, 100 mg/kg/day), the AUC(0-t) came to 94100 ng·h/mL, the Cmax stood at 9310 ng/mL, the Tmax is 8 h and the concentration at 24 h was determined as 216 ng/mL. Further, the half-life in data set [2] (plasma, po, 100 mg/kg/day) is 3 h.
Consider `C[C@]12CC[C@@H]3c4ccc(O)cc4C[C@@H](CCCCCCCCC[S+]([O-])CCCC(F)(F)C(F)(F)F)[C@H]3[C@@H]1CC[C@@H]2O` (some centres unmarked) [Fulvestrant], for which the “Plasma Conc Mean” value in data set [3] (50 mg/kg Days 1, 3 & 8, 25 mg/kg Days 15 & 22, Day 21, Time 0 hr) was 15 ng/mL; in data set [3] (200 mg/kg 3x/wk, Day 28, Time 0 hr), 731 ng/mL; in data set [3] (200 mg/kg 3x/wk, Day 57, Time 0 hr), 665 ng/mL. Also, the “plasma concentrations (exposure) on average” value in data set [3] (mice, 200 mg/kg dose, 3 times per week) is 12000 to 14000 ng·h/mL. Moreover, the “ERα degradation In-Cell Western Emax” value at ERα was found to be 6.4 ± 2.0 % Veh.

These data come from article PMC4961458 (eLife, 2016).
